Drawing on PubChem BioAssay (NCI), this text covers GI50 and TGI for nine compounds.

Among the test systems are EKVX NSCLC; HOP-92 NSCLC; UACC-62 melanoma; NCI-H460 lung; CAKI-1 renal; MDA-MB-435; HCT-116 colon; MDA-MB-231 breast.
Assay in all cases: DTP human tumour cell line panel, 48 h

“And” between values parts separate entries of the source, which are not always exact repeats. Equal values may be shown once.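 Grown in 96-well plates, cells were treated for 48 hours with each compound at five concentrations. Insufficient inhibition: endpoint recorded as highest concentration tested. GI50 is the concentration that inhibits growth by half. TGI denotes the concentration required for complete inhibition of growth.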 Bounds are passed on as bounds.

Take `O=C(NOC[C@H](O)CO)c1ccc(F)c(F)c1Nc1ccc(I)cc1F`: the concentration for 50% growth inhibition (GI50) (usually the concentration giving 50% growth inhibition) is 0.101 µM and 0.0891 µM in the assay on EKVX NSCLC; 0.0377 µM and 0.0201 µM in the assay with HOP-92 NSCLC; < 0.01 µM and 0.00155 µM in the assay with UACC-62 melanoma; 15 µM and > 3.36 µM in the assay with NCI-H460 lung; < 0.01 µM and 0.00416 µM with MDA-MB-435; 0.0265 µM and 0.0182 µM in the assay on HCT-116 colon. The GI50 in the assay with MDA-MB-231 breast was 0.16 µM and 0.0347 µM. For the same compound, the TGI (commonly the concentration giving total growth inhibition) in the assay with EKVX NSCLC was more than 100 µM; with HOP-92 NSCLC, 0.613 µM and 0.43 µM; with NCI-H460 lung, more than 100 µM; in the assay on CAKI-1 renal it was more than 100 µM; with MDA-MB-435, more than 100 µM; in the assay on HCT-116 colon, more than 100 µM. For the same compound, in the assay with MDA-MB-231 breast, the TGI is 62.7 µM and > 10 µM.

For the compound `O=C(/C=C/C12c3ccccc3C(c3ccccc31)C1C(=O)NC(=O)C12)c1ccc(Cl)cc1Cl` (configuration not stated), the GI50 in the assay on EKVX NSCLC was 1.86 µM; in the assay with HOP-92 NSCLC it was 1.5 µM; in the assay on UACC-62 melanoma, 1.67 µM; in the assay on NCI-H460 lung, 1.85 µM; in the assay on CAKI-1 renal, 1.57 µM; with MDA-MB-435, 1.98 µM. For the same compound, the values for the GI50 with HCT-116 colon and in the assay with MDA-MB-231 breast were 1.61 µM and 2.31 µM, respectively. Besides, the total growth inhibition concentration (TGI) was 4.16 µM with EKVX NSCLC; 3.3 µM in the assay on HOP-92 NSCLC; 3.18 µM in the assay on UACC-62 melanoma; 3.82 µM with NCI-H460 lung; 3.05 µM with CAKI-1 renal; 4.06 µM in the assay with MDA-MB-435. The TGI came to 3.05 µM with HCT-116 colon and 5.82 µM in the assay on MDA-MB-231 breast.

`COc1ccc2cc(/C=C/C(=O)c3ccc(Cl)cc3Cl)ccc2c1`: the GI50 is 41.7 µM in the assay on EKVX NSCLC; 97.7 µM in the assay with HOP-92 NSCLC; 21.6 µM in the assay with UACC-62 melanoma; 27.4 µM in the assay on NCI-H460 lung; 42.7 µM in the assay with CAKI-1 renal; 25.4 µM with MDA-MB-435. The GI50 with HCT-116 colon was 16.9 µM; with MDA-MB-231 breast, 27.3 µM. Moreover, the TGI in the assay with EKVX NSCLC was more than 100 µM; in the assay on HOP-92 NSCLC, more than 100 µM; in the assay with UACC-62 melanoma it was 79.4 µM; with NCI-H460 lung, more than 100 µM; in the assay with CAKI-1 renal, 89.1 µM; in the assay on MDA-MB-435, 75.3 µM. Moreover, the total growth inhibition concentration (TGI) in the assay with HCT-116 colon was 46 µM; with MDA-MB-231 breast, more than 100 µM.

Regarding `COc1cc(F)c(F)c(Nc2ccc(I)cc2F)c1NS(=O)(=O)C1(C[C@H](O)CO)CC1`, the concentration for 50% growth inhibition (GI50) is 0.323 µM in the assay on EKVX NSCLC; 0.189 µM with HOP-92 NSCLC; 0.0158 µM with UACC-62 melanoma; 1.62 µM in the assay on NCI-H460 lung; 0.44 µM in the assay on CAKI-1 renal; 0.0659 µM in the assay on MDA-MB-435. Moreover, the 50% growth inhibitory concentration (GI50) with HCT-116 colon was 0.201 µM; in the assay on MDA-MB-231 breast it was 0.217 µM. In addition, the TGI with EKVX NSCLC was more than 10 µM; with HOP-92 NSCLC it was 1.68 µM; with UACC-62 melanoma, 0.172 µM; with NCI-H460 lung it was more than 10 µM; in the assay with CAKI-1 renal, more than 10 µM; in the assay with MDA-MB-435, more than 10 µM. Also, the TGI with HCT-116 colon is more than 10 µM; in the assay with MDA-MB-231 breast, more than 9.46 µM.

For the compound `COc1ccccc1C#Cc1ccccc1C#CCCCCO`, the GI50 in the assay on EKVX NSCLC is 15.9 µM; in the assay with HOP-92 NSCLC, 13.7 µM; in the assay on UACC-62 melanoma it was 16 µM; with NCI-H460 lung it was 15.5 µM; in the assay with CAKI-1 renal, 19.7 µM; in the assay with MDA-MB-435 it was 20.2 µM. The GI50 in the assay on HCT-116 colon was 16 µM; in the assay on MDA-MB-231 breast, 12.4 µM. Besides, the total growth inhibition concentration (TGI) amounted to 34.4 µM in the assay with EKVX NSCLC; 31.1 µM with HOP-92 NSCLC; 30.7 µM in the assay with UACC-62 melanoma; 34.2 µM in the assay on NCI-H460 lung; 42.7 µM with CAKI-1 renal; 41.8 µM in the assay with MDA-MB-435. For the same compound, the TGI was determined as 36.3 µM in the assay with HCT-116 colon and 27.1 µM in the assay with MDA-MB-231 breast.

With `Nc1ccccc1C#C/C=C\C#Cc1ccc(OCCCNC(=O)c2cc3ccccc3[nH]2)cc1`, the GI50 is 16.4 µM with EKVX NSCLC; 14.4 µM in the assay on HOP-92 NSCLC; 4.11 µM in the assay with UACC-62 melanoma; 9.83 µM with NCI-H460 lung; 18.1 µM in the assay on CAKI-1 renal; 20.6 µM with MDA-MB-435. For the same compound, the GI50 was 12.4 µM in the assay with HCT-116 colon and 1.93 µM in the assay with MDA-MB-231 breast. For the same compound, the TGI is 92.7 µM in the assay with EKVX NSCLC; 37.5 µM in the assay with HOP-92 NSCLC; more than 100 µM in the assay with UACC-62 melanoma; more than 100 µM in the assay with NCI-H460 lung; 72 µM with CAKI-1 renal; more than 100 µM in the assay on MDA-MB-435. Moreover, the TGI with HCT-116 colon worked out at 40.6 µM; in the assay on MDA-MB-231 breast, 14.6 µM.

Regarding `COc1cc2ncn(-c3cc(OCc4ccccc4C(F)(F)F)c(C(=O)N(C)C)s3)c2cc1OC`, the GI50 in the assay with EKVX NSCLC was more than 25 µM; with HOP-92 NSCLC, 6.66 µM; in the assay on UACC-62 melanoma, 21.6 µM; in the assay on NCI-H460 lung it was more than 25 µM; with CAKI-1 renal, more than 25 µM; in the assay with MDA-MB-435 it was more than 25 µM. Besides, the values for the GI50 in the assay on HCT-116 colon and in the assay on MDA-MB-231 breast were more than 25 µM and 10.9 µM, respectively. Moreover, the concentration for total growth inhibition (TGI) was more than 25 µM in the assay with EKVX NSCLC; more than 23.9 µM in the assay on HOP-92 NSCLC; more than 25 µM in the assay on UACC-62 melanoma; more than 25 µM with NCI-H460 lung; more than 25 µM in the assay with CAKI-1 renal; more than 25 µM in the assay on MDA-MB-435. For the same compound, the TGI in the assay with HCT-116 colon and in the assay on MDA-MB-231 breast was more than 25 µM in each case.

As for `CC(C)c1cnn2c(NCc3ccccc3)cc(NC[C@H]3CCNC[C@@H]3O)nc12`, the GI50 with EKVX NSCLC is 0.861 µM and 0.645 µM; with HOP-92 NSCLC it was 0.242 µM and 1.31 µM; in the assay on UACC-62 melanoma, 0.236 µM and 0.29 µM; with NCI-H460 lung it was 0.0583 µM and 0.0817 µM; in the assay with CAKI-1 renal, 0.472 µM and 1.65 µM; with MDA-MB-435, 0.343 µM and 0.578 µM. Further, the GI50 in the assay on HCT-116 colon is 0.168 µM and 0.158 µM; in the assay on MDA-MB-231 breast it was 0.388 µM and 0.536 µM. The TGI is 8.2 µM and 6.07 µM in the assay on EKVX NSCLC; 4.22 µM and 5.54 µM in the assay on HOP-92 NSCLC; 1.96 µM and 1.92 µM in the assay with UACC-62 melanoma; 1.7 µM and 3.31 µM in the assay with NCI-H460 lung; 9.13 µM and 11.4 µM in the assay with CAKI-1 renal; 1.74 µM and 2.07 µM with MDA-MB-435. Further, the total growth inhibition concentration (TGI) in the assay with HCT-116 colon is 10.9 µM and 10.8 µM; in the assay on MDA-MB-231 breast it was 7.52 µM and 3.67 µM.

Regarding `CS(=O)(=O)CCNCc1cc(-c2cc3c(Nc4ccc(OCc5cccc(F)c5)c(Cl)c4)ncnc3s2)cs1`, the GI50 in the assay on EKVX NSCLC is 3.42 µM; in the assay with HOP-92 NSCLC, 4.34 µM; in the assay on UACC-62 melanoma, 7.12 µM; with NCI-H460 lung, 9.64 µM; in the assay with CAKI-1 renal, 4.79 µM; with MDA-MB-435 it was 11 µM. In addition, the GI50 is 12 µM in the assay with HCT-116 colon and 6.15 µM with MDA-MB-231 breast. In addition, the TGI is more than 25 µM in the assay on EKVX NSCLC; more than 25 µM in the assay on HOP-92 NSCLC; 24.5 µM in the assay on UACC-62 melanoma; more than 25 µM in the assay with NCI-H460 lung; more than 25 µM in the assay with CAKI-1 renal; more than 25 µM in the assay on MDA-MB-435. For the same compound, the TGI is more than 25 µM in the assay on HCT-116 colon and 19.9 µM with MDA-MB-231 breast.
